These results are taken from ChEMBL document CHEMBL4673276, “Inhibition of the NorA efflux pump of S. aureus by (Z)-5-(4-Fluorobenzylidene)-Imidazolidines” (Bioorg Med Chem Lett, 2021).

The nature of data set [1]: Toxicity in brine shrimp assessed as mortality at 1 mg/ml. The settings on record: artemia salina, read-out: Activity.
Data set [2] deals with T1, Quinolone resistance protein NorA (Staphylococcus aureus) (UniProt P0A0J7).
T1 sequence (whole entry): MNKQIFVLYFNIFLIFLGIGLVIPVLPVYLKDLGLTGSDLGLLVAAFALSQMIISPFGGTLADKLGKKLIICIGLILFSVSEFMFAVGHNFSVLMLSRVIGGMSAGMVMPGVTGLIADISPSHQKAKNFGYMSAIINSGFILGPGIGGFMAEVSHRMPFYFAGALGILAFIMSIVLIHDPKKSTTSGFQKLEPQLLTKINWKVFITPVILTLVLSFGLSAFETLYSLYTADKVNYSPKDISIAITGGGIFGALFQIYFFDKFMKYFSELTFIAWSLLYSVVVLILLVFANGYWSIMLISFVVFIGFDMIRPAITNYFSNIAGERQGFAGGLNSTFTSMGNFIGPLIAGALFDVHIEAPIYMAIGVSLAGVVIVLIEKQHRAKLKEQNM
Put plainly: Inhibition of NorA in Staphylococcus aureus SA-1199B assessed as potentiation of norfloxacin-mediated antibacterial activity by measuring maximal reduction in norfloxacin MIC.

In data set [3] the test system is Staphylococcus aureus. Put plainly: Antibacterial activity against Staphylococcus aureus SA-1199B. Format: functional.
Data set [4] concerns the target T1, Quinolone resistance protein NorA (Staphylococcus aureus). Put plainly: Inhibition of NorA in Staphylococcus aureus SA-1199B assessed as potentiation of ciprofloxacin -mediated antibacterial activity by measuring maximal reduction in ciprofloxacin MIC.
The test system of data set [5] is Staphylococcus aureus. Put plainly: Antibacterial activity against Staphylococcus aureus ATCC 25923. Format: functional.
Data set [6] has as its target T1, Quinolone resistance protein NorA (Staphylococcus aureus). Put plainly: Inhibition of NorA in staphylococcus aureus SA-1199B assessed as ethidium bromide accumulation.
For data set [7] the target is unchanged. Put plainly: Inhibition of NorA in Staphylococcus aureus SA-1199B assessed as potentiation of norfloxacin-mediated antibacterial activity by measuring fold reduction in ciprofloxacin MIC.
Data set [8] shares this target. Put plainly: Inhibition of NorA in staphylococcus aureus SA-1199B assessed as increase in fluorescence emission of ethidium bromide accumulation for 25 mins by fluorometric assays.
The target is the same in data set [9]. Put plainly: Inhibition of NorA in Staphylococcus aureus SA-1199B assessed as potentiation of norfloxacin-mediated antibacterial activity by measuring fold reduction in norfloxacin MIC.

Converted amounts (≈) assume the structure as drawn. The source made the active and inactive calls. The calls are words filed in the database; no cut-off is given here. Some results are limits rather than exact numbers.

The MIC is the least concentration at which growth counts as inhibited. High values mean a need for much substance, low ones inhibition by little substance. As for `O=C1NC(=O)/C(=C/c2ccc(F)cc2)N1`, the mortality at 1 mg/ml in data set [1] was 47%. The MEC in data set [2] and in [4] was 64 µg/mL each time. For the same molecule, the MIC in the data set on Staphylococcus aureus [3] and against Staphylococcus aureus [5] was 512 µg/mL (≈ 2480 µM) in each case. The inhibition result in data set [6] and in [8] was “Active” throughout. Further, the fold change (FC) in data set [7] was 3.2; in data set [9], 6.4.
For the molecule `O=C1NC(=S)N/C1=C\c1cccs1`, the MIC in the data set with Staphylococcus aureus [3] was not below 1020 µg/mL.
Take `CN(C)CCCN1c2ccccc2Sc2ccc(Cl)cc21`: the inhibition entry in data set [8] was “Active”.
`O=C1NC(=O)/C(=C/c2ccccn2)N1` registered a minimal inhibitory concentration (MIC) in the data set on Staphylococcus aureus [3] not below 1020 µg/mL.
On the same count and under the same terms, the value for `CCn1cc(C(=O)O)c(=O)c2cc(F)c(N3CCNCC3)cc21` [NORFLOXACIN] was 64 µg/mL (≈ 200 µM); that for `O=C1NC(=S)N/C1=C\c1ccccn1` was not below 1020 µg/mL.
Turning to `O=C1NC(=S)N/C1=C\c1ccc(F)cc1`, the mortality at 1 mg/ml in [1] is 90%. Also, the MEC in [2] and in data set [4] was 64 µg/mL each time. Besides, the MIC in the data set on Staphylococcus aureus [3] and against Staphylococcus aureus [5] was 512 µg/mL (≈ 2300 µM) throughout. For the same molecule, the inhibition result in data set [6] and in [8] was “Active” throughout. In addition, the fold change (FC) in [7] amounted to 3.2; in data set [9], 4.
In turn, `O=C1NC(=O)/C(=C/c2cccs2)N1` yielded a minimal inhibitory concentration (MIC) with Staphylococcus aureus [3] not below 1020 µg/mL.
